Laboratory results published in patent US6355630B1, “Estra-1,3,5(10)-triene-7α-thioethers” (priority 1997, dated 2002).
Several values for one entry are separate records, joined by “and”; a condition that tells them apart may be missing. Equal values may be shown once. Read-outs that look alike come from different tables or passages of the source.

What was measured:
Ishikawa uterine cells = assay: Ishikawa cell alkaline phosphatase test procedure; format: cell-based, human; details: for Alkaline phosphatase activity, percent of response related to 1 nM 17β-estradiol: 48 h; for EC50: reference standards, read-out: ED50, estrogenic activity by the alkaline phosphatase method
Experimental: Ishikawa Cell Alkaline Phosphatase Test Procedure
Cell Maintenance and Treatment
Ishikawa cells were maintained in DMEM/F12 (50%:50%) containing phenol red+10% fetal bovine serum and the medium was supplemented with 2 mM Glutamax, 1% Pen/Strap and 1 mM sodium pyruvate. Five days prior to the beginning of each evaluation (treatment of cells) the medium was changed to phenol red-free DMEM/F12+10% dextran coated charcoal stripped serum. On the day before treatment, cells were harvested using 0.5% trypsin/EDTA and plated at a density of 5×10^4 cells/well in 96-well tissue culture plates. […] Cells were treated for 48 h prior to assay. […] Sample population for at each dose was n=8.
Alkaline Phosphatase Test Procedure
At the end of 48 h the media was aspirated and cells were washed three times with phosphate buffered saline (PBS); 50 μL of lysis buffer (0.1 M Tris-HCl, pH 9.8, 0.2% Triton X-100) was added to each well. Plates were placed at −80° C. for a minimum of 15 minutes. Plates were thawed at 37° C. followed by the addition of 150 μL of 0.1 M Tris-HCl, pH 9.8, containing 4 mM para-nitrophenylphosphate (pNPP) to each well (final concentration, 3 mM pNPP).
Absorbance and slope calculations were made using the KineticCalc Application program (Bio-Tek Instruments, Inc., Winooski, Vt.). Results are expressed as the mean +/−S.D. of the rate of enzyme reaction (slope) averaged over the linear portion of the kinetic reaction curve (optical density readings every 5 minutes for 30 minutes absorbance reading).
The four compounds were used as reference standards:
A description of these methods is described by Holinka, C. F., Hata, H., Kuramoto, H. and Gurpide, E. (1986) Effects of steroid hormones and antisteroids on alkaline phosphatase activity in human endometrial cancer cells (Ishikawa Line). Cancer Research, 46:2771-2774, and by Littlefield, B. A., Gurpide, E., Markiewicz, L., McKinley, B. and Hochberg, R. B. (1990) A simple and sensitive microtiter plate estrogen bioassay based on stimulation alkaline phosphatase in Ishikawa cells; Estrogen action of D5 adrenal steroids. Endocrinology, 6:2757-2762.

human estrogen receptor = target: T1, human estrogen receptor (Homo sapiens, UniProt P03372); assay: In vitro estrogen receptor binding test procedure ([3H]-17β-estradiol competition)
T1 construct: expressed in transfected cells; host or cells: Chinese Hamster ovary (CHO) cells; ribosome-free cytosol
T1 sequence (P03372 1-595): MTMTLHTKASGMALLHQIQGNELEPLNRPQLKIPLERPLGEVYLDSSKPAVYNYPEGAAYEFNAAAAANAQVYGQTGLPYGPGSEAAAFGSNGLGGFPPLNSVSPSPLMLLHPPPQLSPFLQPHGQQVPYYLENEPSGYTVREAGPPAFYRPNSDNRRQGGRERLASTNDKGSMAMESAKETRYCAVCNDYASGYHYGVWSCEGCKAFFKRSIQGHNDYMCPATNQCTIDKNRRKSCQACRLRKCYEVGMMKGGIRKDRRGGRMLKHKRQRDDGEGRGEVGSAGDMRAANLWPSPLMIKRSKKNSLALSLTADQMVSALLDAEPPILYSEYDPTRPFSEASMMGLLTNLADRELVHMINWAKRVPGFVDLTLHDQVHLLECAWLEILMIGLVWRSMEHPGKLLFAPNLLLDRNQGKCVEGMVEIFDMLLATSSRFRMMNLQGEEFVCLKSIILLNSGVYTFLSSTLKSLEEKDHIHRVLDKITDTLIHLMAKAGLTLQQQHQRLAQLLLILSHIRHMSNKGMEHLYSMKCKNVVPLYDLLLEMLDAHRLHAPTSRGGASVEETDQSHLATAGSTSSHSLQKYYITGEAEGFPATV
Experimental: In vitro Estrogen Receptor Binding Test Procedure
Chinese Hamster ovary (CHO) cells overexpressing the estrogen receptor were grown in […] dishes in DMEM+10% dextran coated charcoal, stripped fetal bovine serum. The plates were washed twice with PBS and once with 10 mM Tris-HCl, pH 7.4, 1 mM EDTA. Cells were harvested by scraping the surface and then the cell suspension was placed on ice. Cells were disrupted with a hand-held motorized tissue grinder using two, 10-second bursts. The crude preparation was centrifuged at 12,000 g for 20 minutes followed by a 60 minute spin at 100,000 G to produce a ribosome free cytosol. The cytosol was then frozen and stored at −80° C. Protein concentration of the cytosol was estimated using the BCA assay with reference standard protein.
Binding Test Procedure Conditions
100 uG/100 uL of the receptor preparation was aliquoted per well. […] The plate was incubated at room temperature for 2.5 h. At the end of this incubation period 150 uL of ice-cold dextran coated charcoal (5% activated charcoal coated with 0.05% 69K dextran) was added to each well and the plate was immediately centrifuged at 99 g for 5 minutes at 4° C. 200 uL of the supernatant solution was then removed for scintillation counting. Samples were counted to 2% or 10 minutes, whichever occurs first. […] Also, wells containing radioactivity but no cytosol were processed with charcoal to estimate unremovable DPM of [^3H] […] 96-well plates were used because they have proven to bind the least amount of estradiol.
Counts per minute (CPM) of radioactivity were automatically converted to disintegrated per minute (DPM) by the Beckman LS 7500 Scintillation Counter using a set of quenched standards to generate a H# for each sample. To calculate the % of estradiol binding in the presence of 100 or 500 fold competitor the following formula was applied:
((DPM sample−DPM not removed by charcoal/(DPM estradiol−DPM not removed by charcoal))×100%=% of estradiol binding
For the generation of IC50 curves, % binding is plotted vs compound. […] Values are reported as IC50 values. […] For a description of these methods, see Hulme, E. C., ed. 1992. Receptor-Ligand Interactions: A Practical Approach. IRL Press, New York.(see especially chapter 8).
Compounds were tested for their ability to displace estradiol in a human ER-receptor preparation as described above.

rat uterus = assay: Rat uterotrophic/antiuterotrophic test procedure; format: in vivo; details: 1 ug 17β-estradiol, daily ip, 4-day immature rat
Experimental: Rat Uterotrophic/Antiuterotrophic Test Procedure
The estrogenic and antiestrogenic properties of the compounds were determined in a 4-day immature rat uterotrophic assay (as described previously by L. J. Black and R. L. Goode, Life Sciences, 26, 1453 (1980)). Immature Sprague-Dawley rats (female, 18 days old) were tested in groups of six. […] On day 4 the animals were sacrificed by CO2 asphyxiation and their uteri were removed and stripped of excess lipid, any fluid removed and the wet weight determined. A small section of one horn was submitted for histology and the remainder used to isolate total RNA in order to evaluate complement component 3 gene expression.
Representative compounds of this invention were evaluated in the rat uterotrophic/antiuterotrophic assay to determine their in vivo effects on the rat uterus.

[1] = 1 uM compound + 1 nM E2, antagonist mode

Structure (SMILES): CN(C)C(=O)/C=C/c1ccc(S[C@@H]2Cc3cc(O)ccc3[C@H]3CC[C@]4(C)[C@@H](O)CC[C@H]4[C@@H]32)cc1 [Example 10, (7α,17β) 7-{4-[(E)-2-(N,N-Dimethylcarbamoyl)-ethenyl]phenyl}thio-estra-1,3,5(10)-triene-3,17-diol]
- Alkaline phosphatase activity, percent of response related to 1 nM 17β-estradiol (Ishikawa uterine cells; 0.01 uM compound, agonist mode): 0%
- Alkaline phosphatase activity, percent of response related to 1 nM 17β-estradiol (Ishikawa uterine cells; 0.1 uM compound, agonist mode): 12%
- Alkaline phosphatase activity, percent of response related to 1 nM 17β-estradiol (Ishikawa uterine cells; [1]): 57%
- Alkaline phosphatase activity, percent of response related to 1 nM 17β-estradiol (Ishikawa uterine cells; 1 uM compound, agonist mode): 28%

Structure (SMILES): COC(=O)C=Cc1ccc(S[C@@H]2Cc3cc(O)ccc3[C@H]3CC[C@]4(C)[C@@H](OC(C)=O)CC[C@H]4[C@@H]32)cc1 [Example 9, (7α,17β) 7-{4-[2-(Methoxycarbonyl)-ethenyl]phenyl}thio-estra-1,3,5(10)-triene-3,17-diol-17-acetate]
- Receptor IC50 (human estrogen receptor; displacement of [3H]17β-estradiol, CHO cell cytosol ER preparation): No Binding
- Competition for the human estrogen receptor (human estrogen receptor; in words, compounds with 17β-acetate): competed less effectively
- Alkaline phosphatase activity, percent of response related to 1 nM 17β-estradiol (Ishikawa uterine cells; 0.01 uM compound, agonist mode): 1%
- Alkaline phosphatase activity, percent of response related to 1 nM 17β-estradiol (Ishikawa uterine cells; 0.1 uM compound, agonist mode): 33%
- Alkaline phosphatase activity, percent of response related to 1 nM 17β-estradiol (Ishikawa uterine cells; [1]): 59%
- Alkaline phosphatase activity, percent of response related to 1 nM 17β-estradiol (Ishikawa uterine cells; 1 uM compound, agonist mode): 61%

Structure (SMILES): COc1ccc2c(c1)CC(Sc1ccc(OCCN3CCCCC3)cc1)C1C2CCC2(C)C(O)CCC12 (stereo not drawn) [Example 15, (7α,17β) 3-Methoxy-7-{4-[2-(piperdin-1-yl)]ethoxyphenyl}thio-estra-1,3,5(10)-triene-17-ol]
- Alkaline phosphatase activity, percent of response related to 1 nM 17β-estradiol (Ishikawa uterine cells; 0.01 uM compound, agonist mode): 0%
- Alkaline phosphatase activity, percent of response related to 1 nM 17β-estradiol (Ishikawa uterine cells; 0.1 uM compound, agonist mode): 0%
- Alkaline phosphatase activity, percent of response related to 1 nM 17β-estradiol (Ishikawa uterine cells; [1]): 69%
- Alkaline phosphatase activity, percent of response related to 1 nM 17β-estradiol (Ishikawa uterine cells; 1 uM compound, agonist mode): 22%

Structure (SMILES): C[C@]12CC[C@@H]3c4ccc(O)cc4CC[C@H]3[C@@H]1CCC2=O [estrone, reference compound]
- EC50 (Ishikawa uterine cells; Homo sapiens, Ishikawa): 0.36 nM

Structure (SMILES): C[C@]12CC[C@@H]3c4ccc(O)cc4C[C@@H](Sc4ccc(C=CC(=O)O)cc4)[C@H]3[C@@H]1CC[C@@H]2O [Example 11, (7α,17β) 7-{4-[2-(Carboxy)-ethenyl]phenyl}thio-estra-1,3,5(10)-triene-3,17-diol]
- IC50 (human estrogen receptor): 1500 nM
- Alkaline phosphatase activity, percent of response related to 1 nM 17β-estradiol (Ishikawa uterine cells; 0.01 uM compound, agonist mode): 0%
- Alkaline phosphatase activity, percent of response related to 1 nM 17β-estradiol (Ishikawa uterine cells; 0.1 uM compound, agonist mode): 23%
- Alkaline phosphatase activity, percent of response related to 1 nM 17β-estradiol (Ishikawa uterine cells; [1]): 50%
- Alkaline phosphatase activity, percent of response related to 1 nM 17β-estradiol (Ishikawa uterine cells; 1 uM compound, agonist mode): 21%

Structure (SMILES): CC(=O)O[C@H]1CC[C@H]2[C@@H]3[C@H](Sc4ccc(O)cc4)C(=O)c4cc(O)ccc4[C@H]3CC[C@]12C [Example 1, (7α,17β) 17-Acetoxy-3-hydroxy-7-(4-hydroxyphenyl)thio-estra-1,3,5(10)-triene-6-one]
- Alkaline phosphatase activity, percent of response related to 1 nM 17β-estradiol (Ishikawa uterine cells; 0.01 uM compound, agonist mode): 7%
- Alkaline phosphatase activity, percent of response related to 1 nM 17β-estradiol (Ishikawa uterine cells; 0.1 uM compound, agonist mode): 9%
- Alkaline phosphatase activity, percent of response related to 1 nM 17β-estradiol (Ishikawa uterine cells; [1]): 76%
- Alkaline phosphatase activity, percent of response related to 1 nM 17β-estradiol (Ishikawa uterine cells; 1 uM compound, agonist mode): 29%

Structure (SMILES): CC(=O)O[C@H]1CC[C@H]2[C@@H]3[C@H](Sc4ccc(Br)cc4)C(=O)c4cc(O)ccc4[C@H]3CC[C@]12C [Example 5, (7α,17β) 17-Acetoxy-7-(4-bromophenyl)thio-3-hydroxy-estra-1,3,5(10)-trien-6-one]
- Alkaline phosphatase activity, percent of response related to 1 nM 17β-estradiol (Ishikawa uterine cells; 0.01 uM compound, agonist mode): 58%
- Alkaline phosphatase activity, percent of response related to 1 nM 17β-estradiol (Ishikawa uterine cells; 0.1 uM compound, agonist mode): 108%
- Alkaline phosphatase activity, percent of response related to 1 nM 17β-estradiol (Ishikawa uterine cells; [1]): 106%
- Alkaline phosphatase activity, percent of response related to 1 nM 17β-estradiol (Ishikawa uterine cells; 1 uM compound, agonist mode): 104%
- Behaviour in the uterine cell line (agonist/antagonist) (Ishikawa uterine cells; in words, from Table 2): fully efficacious agonists

Structure (SMILES): C[C@]12CC[C@@H]3c4ccc(O)cc4CC[C@H]3[C@@H]1CC[C@@H]2O [17β-estradiol, reference compound]
- EC50 (Ishikawa uterine cells; Homo sapiens, Ishikawa): 0.03 nM
- Uterine wet weight (rat uterus): 87.6 mg and 82.1 mg and 92.6 mg and 83.8 mg and 94.6 mg

Structure (SMILES): CC12CCC3c4ccc(O)cc4CC(Sc4ccc(-c5ccc(C=O)cc5)cc4)C3C1CCC2O (stereo not drawn) [Example 12, (7α,17β) 7-(4-(4′-Formylbiphenyl)]thio-estra-1,3,5(10)-triene-3,17-diol]
- IC50 (human estrogen receptor; read-out: Receptor IC50): 300 nM
- Alkaline phosphatase activity, percent of response related to 1 nM 17β-estradiol (Ishikawa uterine cells; 0.01 uM compound, agonist mode): 17%
- Alkaline phosphatase activity, percent of response related to 1 nM 17β-estradiol (Ishikawa uterine cells; 0.1 uM compound, agonist mode): 67%
- Alkaline phosphatase activity, percent of response related to 1 nM 17β-estradiol (Ishikawa uterine cells; [1]): 92%
- Alkaline phosphatase activity, percent of response related to 1 nM 17β-estradiol (Ishikawa uterine cells; 1 uM compound, agonist mode): 89%

Structure (SMILES): C[C@]12CC[C@@H]3c4ccc(O)cc4[C@@H](O)[C@@H](Sc4ccc(Br)cc4)[C@H]3[C@@H]1CC[C@@H]2O [Example 7, (6α,7α,17β) 7-(4-Bromophenyl)thio-estra-1,3,5(10)-triene-3,6,17-triol]
- IC50 (human estrogen receptor): 800 nM
- Alkaline phosphatase activity, percent of response related to 1 nM 17β-estradiol (Ishikawa uterine cells; 0.01 uM compound, agonist mode): 46%
- Alkaline phosphatase activity, percent of response related to 1 nM 17β-estradiol (Ishikawa uterine cells; 0.1 uM compound, agonist mode): 58%
- Alkaline phosphatase activity, percent of response related to 1 nM 17β-estradiol (Ishikawa uterine cells; [1]): 98%
- Alkaline phosphatase activity, percent of response related to 1 nM 17β-estradiol (Ishikawa uterine cells; 1 uM compound, agonist mode): 66%

Structure (SMILES): C[C@]12CC[C@@H]3c4ccc(O)cc4CC[C@H]3[C@@H]1CC[C@H]2O [17α-estradiol, reference compound]
- EC50 (Ishikawa uterine cells): 1.42 nM

Structure (SMILES): C[C@]12CC[C@@H]3c4ccc(O)cc4CC[C@H]3[C@@H]1C[C@@H](O)[C@@H]2O [estriol, reference compound]
- EC50 (Ishikawa uterine cells; Homo sapiens, Ishikawa): 0.13 nM
